Measurements: patent publication EP0312245A2, “Polycyclic compounds and pharmaceutical compositions thereof” (NORISTAN HOLDINGS LIMITED, priority 1987, dated 1989)
Read-outs that look alike come from different tables or passages of the source.

What was measured:
[1] = system: guinea-pig papillary muscle; assay: Electrophysiological test: action potential of guinea-pig papillary muscle (microelectrode technique); conditions: for TIME 1 (Shortest time needed to attain suppression) / TIME 2 (Shortest time needed for reversal of effect by washing out of compound): at the listed bath concentration; for DEGREE OF SUPPRESSION: suppression of action potential at the listed bath concentration; for minimal effective concentration: Cavia porcellus
Procedure: Electrophysiological studies were conducted on guinea-pig papillary muscle.
Using a microelectrode technique, action potentials were measured from guinea-pig papillary muscles. Action potentials were evoked by electrical stimulation (platinum electrode, Grass S88 stimulator, 1 Hz stimulation frequency; voltage, 10% above threshold). […] The preparations were electrically driven (pacing intervals 1 s, duration 2-5 ms). Slow (Ca2+ mediated) action potentials were evoked in a depolarizing solution (22 mmol/l K and 5 mmol/I Ca^2+) at 0,35 Hz stimulation frequency in order to ensure complete removal of inactivation of slow inward current.

[2] = system: isolated rabbit ear preparation; assay: Rabbit ear perfusion test (adrenaline-induced tone, perfusion pressure)
Procedure: Female New Zealand White rabbits (approximately 4kg) were anaesthetised with Sagatal ® (0.5ml/kg).
The central ear artery was cannulated using a 20 G catheter and the ear cut off at its base. Heparinised (5ml, 200 IU;ml) Krebs bicarbonate solution was perfused through the ear to expel the blood. The ear was placed in a warming jacket at 37°C and attached via the arterial catheter to the perfusion pump. Perfusion of the ear with aerated (95% 025% C02)Krebs bicarbonate solution at 37° C was commenced at a rate of 6.5ml/min using a Watson Marlow peristaltic pump. The perfusion pressure was monitored continuously using a pressure transducer (Type 4-327-1221, Consoliated Electrodynamics) coupled to a Devices Recorder.
Following an equilibration period of 15 minutes, increased tone was induced in the preparation by addition of adrenaline (1µg/ml) to the perfusion fluid.
After a stable tone was observed, various concentrations of test compounds were injected into the perfusion fluid and examined for their effect on the perfusion pressure. The effect of vehicle (0.2ml, 50% Krebs 50% ethanol) was also tested on the ear preparation.

[3] = read-out: BATH CONCENTRATION (Lowest concentration of the compound to induce suppression of action potential), Table 3, guinea-pig papillary muscle
[4] = read-out: BATH CONCENTRATION (Lowest concentration of the compound to induce suppression of action potential), Table 4, racemates and optical isomers
[5] = Oryctolagus cuniculus, Table 5, dose 100 µg, read-out: Mean % change in perfusion pressure
[6] = Oryctolagus cuniculus, Table 5, dose 316 µg, read-out: Mean % change in perfusion pressure
[7] = Oryctolagus cuniculus, Table 5, dose 1000 µg, read-out: Mean % change in perfusion pressure
[8] = Oryctolagus cuniculus, Table 5, dose 3160 µg, read-out: Mean % change in perfusion pressure

Compound	TIME 1 (Shortest time needed to attain suppression) ([1]; Table 3) [min]	TIME 2 (Shortest time needed for reversal of effect by washing out of compound) ([1]; Table 3) [min]	DEGREE OF SUPPRESSION ([1]; Table 3)	TIME 1 (Shortest time needed to attain suppression) ([1]; Table 4) [min]	DEGREE OF SUPPRESSION ([1]; Table 4)	further results
1 (or7)-Methyl-8-(3-phenylpropyl)-amino-8,11-oxopentacyclo[5.4.0.0^2,6.0^3,10.0^5,9 ]undecane [Compound 12]	12	20	complete	–	–	–
1(or7)-Methyl-8-(2-phenylethyl)-amino-8,11-oxopentacyclo [5.4.0.0^2,6.0^3,1.0^5,9 ]undecane [Compound 11]	32	35	partial	–	–	–
1(or7)-Methyl-8-benzylamino-8,11-oxopentacyclo [5.4.0.0^2,6.0^3,10.0^5,9 ]undecane [Compound 10]	20	10	complete	–	–	–
1(or7)-Methyl-8-η-butylamino-8,11-oxopentacyclo[5.4.0.0^2,6.0^3,10.0^5,9]undecane [Compound 8]	22	6	complete	–	–	–
1(or 7)-Methyl-8-methylamino-8,11-oxopentacyclo[5.4.0.0^2,6.0^3,10.0^5,9] undecane [Compound 7]	12	–	very little	–	–	–
CNC12OC3C4C5CC(C6C5C3C61)C42 (racemic) [Compound 1, 8-Methylamino-8,11-oxopentacyclo[5.4.0.0^2,6 .0^3,10 .0^5,9]-undecane]	25	–	very little	–	–	minimal effective concentration [1, 3]: 120 µM
CCCCNC12OC3C4C5CC(C6C5C3C61)C42 (racemic) [Compound 2, 8-η-Butylamino-8,11-oxopentacyclo[5.4.0.0^2,6 .0^3,10 .0^5,9]undecane]	29	–	very little	25	little	minimal effective concentration [1, 3]: 150 µM; minimal effective concentration [1, 4]: 150 µM; inhibition at 0.1 mg [2, 5]: 7.5%; inhibition at 0.316 mg [2, 6]: 8%; inhibition at 1 mg [2, 7]: 12%; inhibition at 3.16 mg [2, 8]: 26%; Mean time taken to return to pre-dose volume ([2]; Table 5, dose 1000 µg): 5.5 min; Mean time taken to return to pre-dose volume ([2]; Table 5, dose 3160 µg): 5.75 min
c1ccc(CNC23OC4C5C6CC(C7C6C4C72)C53)cc1 (racemic) [Compound 4, 8-Benzylamino-8,11-oxopentacyclo[5.4.0.0^2,6 .0^3,10 .0^5,9]undecane]	15	10	complete	15	complete	minimal effective concentration [1, 3]: 20 µM; minimal effective concentration [1, 4]: 20 µM; TIME 2 (Shortest time needed for reversal of effect by washing out of compound) ([1]; Table 4): 10 min
c1ccc(CCCNC23OC4C5C6CC(C7C6C4C72)C53)cc1 (racemic) [Compound 6, 8-(3-Phenylpropyl)-amino-8,11-oxopentacyclo [5.4.0.0^2,6.0^3,10.0^5,9] undecane]	18	14	complete	–	–	minimal effective concentration [1, 3]: 50 µM
CCNC12OC3C4C5CC(C6C5C3C61)C42 (racemic) [Compound 13, 8-Ethylamino-8,11-oxopentacyclo [5.4.0.0^2,6.0^3,10.0^5,9]undecane]	–	–	–	–	–	inhibition at 0.1 mg [2, 5]: 6%; inhibition at 0.316 mg [2, 6]: 7%; inhibition at 1 mg [2, 7]: 5.5%; inhibition at 3.16 mg [2, 8]: 11.5%; Mean time taken to return to pre-dose volume ([2]; Table 5, dose 3160 µg): 2.0 min
CCCCCCCCCCCCNC12OC3C4C5CC(C6C5C3C61)C42 (racemic) [Compound 14, 8-η -Dodecylamino-8,11-oxopentacyclo [5.4.0.0^2,6.0^3,10.0^5,9]undecane]	–	–	–	–	–	inhibition at 0.0316 mg ([2]; Oryctolagus cuniculus, Table 7, dose 31.6 μg, read-out: Mean % change in perfusion pressure): 6.1%; inhibition at 0.1 mg ([2]; Oryctolagus cuniculus, Table 7, dose 100 μg, read-out: Mean % change in perfusion pressure): 12.4%; inhibition at 0.316 mg ([2]; Oryctolagus cuniculus, Table 7, dose 316 μg, read-out: Mean % change in perfusion pressure): 8.7%; inhibition at 1 mg ([2]; Oryctolagus cuniculus, Table 7, dose 1000 μg, read-out: Mean % change in perfusion pressure): 6.6%; inhibition at 3.16 mg ([2]; Oryctolagus cuniculus, Table 7, dose 3160 μg, read-out: Mean % change in perfusion pressure): 7.7%
CC(C)CNC12OC3C4C5CC(C6C5C3C61)C42 (racemic) [Compound 15, 8-Isobutylamino-8,11-oxopentacyclo [5.4.0.0^2,60^3,10.0^5,9]-undecane]	–	–	–	–	–	inhibition at 0.1 mg [2, 5]: 6.5%; inhibition at 0.316 mg [2, 6]: 8.5%; inhibition at 1 mg [2, 7]: 7%; inhibition at 3.16 mg [2, 8]: 21%; Mean time taken to return to pre-dose volume ([2]; Table 5, dose 3160 µg): 2.5 min
CCCCNC12OC3C4C5CC(C6C5C3C61)C42 (single isomer, unassigned) [(+) -2, 8-η -butylamino-8,11-oxopentacyclo [5.4.0.0^2,6.0^3,10.0^5,9] undecane]	–	–	–	25	very little	–
CCCCCCCCNC12OC3C4C5CC(C6C5C3C61)C42 (single isomer, unassigned) [(+) -3, 8-η -octylamino-8,11-oxopentacyclo [5.4.0.0^2,6.0^3,10.0^5,9]undecane]	–	–	–	30	incomplete	TIME 2 (Shortest time needed for reversal of effect by washing out of compound) ([1]; Table 4): 11 min
c1ccc(CNC23OC4C5C6CC(C7C6C4C72)C53)cc1 (single isomer, unassigned) [(+) -4, 8-benzylamino-8,11-oxopentacyclo [5.4.0.0^2,6.0^3,10.0^5,9]undecane]	–	–	–	20	complete	TIME 2 (Shortest time needed for reversal of effect by washing out of compound) ([1]; Table 4): 15 min
CCCCNC12OC3C4C5CC(C6C5C3C61)C42 (single isomer, unassigned) [(-) -2, 8-η -butylamino-8,11-oxopentacyclo [5.4.0.0^2,6.0^3,10.0^5,9] undecane]	–	–	–	25	little	minimal effective concentration [1, 4]: 130 µM
CCCCCCCCNC12OC3C4C5CC(C6C5C3C61)C42 (single isomer, unassigned) [(-) -3, 8-η -octylamino-8,11-oxopentacyclo [5.4.0.0^2,6.0^3,10.0^5,9]undecane]	–	–	–	10	complete	TIME 2 (Shortest time needed for reversal of effect by washing out of compound) ([1]; Table 4): 7 min
c1ccc(CNC23OC4C5C6CC(C7C6C4C72)C53)cc1 (single isomer, unassigned) [(-) -4, 8-benzylamino-8,11-oxopentacyclo [5.4.0.0^2,6.0^3,10.0^5,9]undecane]	–	–	–	10	complete	minimal effective concentration [1, 4]: 56.6 µM; TIME 2 (Shortest time needed for reversal of effect by washing out of compound) ([1]; Table 4): 5 min
COc1ccc(CCN(C)CCCC(C#N)(c2ccc(OC)c(OC)c2)C(C)C)cc1OC (stereo not drawn) [Verapamil, reference compound]	10	15	complete	–	–	minimal effective concentration [1, 3]: 40 µM
